pIC50: −log10 of the molar value.

In the first experiment the target is ATX (human His-tagged) (Homo sapiens (Human), UniProt Q13822). As to the kind of experiment: Human ATX enzyme inhibition assay (fluorescence quenching, MR121 substrate). The settings on record: 30 nM ATX, 1 μM MR121 substrate, 30° C., pH 8.0; read-out: ATX IC50. It is filed as biochemical. An excerpt: Human ATX Enzyme Inhibition Assay
Assay working solutions were made as follows:
In the case of `CO[C@@]12CN(C(=O)c3cc(OCC4CCOCC4)nc(C4CC4)c3)C[C@H]1CN(C(=O)c1ccc3[nH]c(=O)n(C)c3c1)C2` (relative stereo) [Example 1.06, trans-5-[5-[2-cyclopropyl-6-(oxan-4-ylmethoxy)pyridine-4-carbonyl]-3a-methoxy-3,4,6,6a-tetrahydro-1H-pyrrolo[3,4-c]pyrrole-2-carbonyl]-3-methyl-1H-benzimidazol-2-one], the negative-log IC50 (pIC50) (usually −log10 of the IC50, conventionally taken in molar units) was 8.70.
Still for that read-out and setting: with `C[C@@]12CN(C(=O)OCc3ccc(OC(F)(F)F)cc3)C[C@H]1CN(C(=O)c1ccc3[nH]nnc3c1)C2` (single isomer, unassigned) [Example 4.02, (−)-trans-5-(1H-benzotriazole-5-carbonyl)-3a-methyl-hexahydro-pyrrolo[3,4-c]pyrrole-2-carboxylic acid 4-trifluoromethoxy-benzyl ester] the figure was 8.22; with `CO[C@]12CN(C(=O)OCc3ccc(OC(F)(F)F)cc3)C[C@@H]1CN(C(=O)c1ccc3[nH]nnc3c1)C2` (relative stereo) [Example 1.01, trans-5-(1H-benzotriazole-5-carbonyl)-3a-methoxy-hexahydro-pyrrolo[3,4-c]pyrrole-2-carboxylic acid 4-trifluoromethoxy-benzyl ester], 7.92.
`C[C@]12CN(C(=O)OCc3ccc(OC(F)(F)F)cc3)C[C@@H]1CN(C(=O)c1ccc3[nH]nnc3c1)C2` (relative stereo) [Example 1.04, trans-5-(1H-benzotriazole-5-carbonyl)-3a-methyl-hexahydro-pyrrolo[3,4-c]pyrrole-2-carboxylic acid 4-trifluoromethoxy-benzyl ester]: the pIC50 is 7.89.
Turning to `O=C(OCc1ccc(OC(F)(F)F)cc1)N1C[C@@H]2CN(C(=O)c3ccc4[nH]nnc4c3)C[C@@]2(F)C1` (relative stereo) [Example 1.00, trans-5-(1H-Benzotriazole-5-carbonyl)-3a-fluoro-hexahydro-pyrrolo[3,4-c]pyrrole-2-carboxylic acid 4-trifluoromethoxy-benzyl ester], the pIC50 is 8.30.
As for `CO[C@@]12CN(C(=O)c3cc(OCC4CCOCC4)nc(C4CC4)c3)C[C@H]1CN(C(=O)c1ccc3[nH]nnc3c1)C2` (relative stereo) [Example 1.03, trans-[5-[2-cyclopropyl-6-(oxan-4-ylmethoxy)pyridine-4-carbonyl]-3a-methoxy-3,4,6,6a-tetrahydro-1H-pyrrolo[3,4-c]pyrrol-2-yl]-(1H-benzotriazol-5-yl)methanone], the negative logarithm of the IC50 (pIC50) is 7.89.
On the same count and under the same terms, with `CO[C@]12CN(C(=O)CCc3ccc(OC(F)(F)F)cc3)C[C@@H]1CN(C(=O)c1ccc3[nH]c(=O)n(C)c3c1)C2` (relative stereo) [Example 1.05, trans-5-[3a-methoxy-2-[3-[4-(trifluoromethoxy)phenyl]propanoyl]-3,4,6,6a-tetrahydro-1H-pyrrolo[3,4-c]pyrrole-5-carbonyl]-3-methyl-1H-benzimidazol-2-one] the figure was 7.74; with `CO[C@@]12CN(C(=O)c3cc(OCC4CCOCC4)nc(C4CC4)c3)C[C@H]1CN(C(=O)N1CCc3c(O)noc3C1)C2` (single isomer, unassigned) [Example 4.01, trans-[5-(3-hydroxy-5,7-dihydro-4H-[1,2]oxazolo[5,4-c]pyridine-6-carbonyl)-3a-methoxy-3,4,6,6a-tetrahydro-1H-pyrrolo[3,4-c]pyrrol-2-yl]-[2-cyclopropyl-6-(oxan-4-ylmethoxy)pyridin-4-yl]methanone], 8.10; with `CO[C@]12CN(C(=O)CCc3ccc(OC(F)(F)F)cc3)C[C@@H]1CN(C(=O)N1CCc3[nH]nnc3C1)C2` (relative stereo) [Example 2.01, trans-1-[3a-methoxy-5-(1,4,6,7-tetrahydrotriazolo[4,5-c]pyridine-5-carbonyl)-3,4,6,6a-tetrahydro-1H-pyrrolo[3,4-c]pyrrol-2-yl]-3-[4-(trifluoromethoxy)phenyl]propan-1-one], 7.52.
Still for that read-out and setting: the same measure for `C[C@@]12CN(C(=O)OCc3ccc(OC(F)(F)F)cc3)C[C@H]1CN(C(=O)c1ccc3[nH]nnc3c1)C2` (single isomer, unassigned) [Example 3.02, (+)-trans-5-(1H-benzotriazole-5-carbonyl)-3a-methyl-hexahydro-pyrrolo[3,4-c]pyrrole-2-carboxylic acid 4-trifluoromethoxy-benzyl ester]: 7.92; for `CO[C@]12CN(C(=O)CCc3ccc(OC(F)(F)F)cc3)C[C@@H]1CN(C(=O)N1CCc3c(O)noc3C1)C2` (relative stereo) [Example 2.02, trans-1-[5-(3-hydroxy-5,7-dihydro-4H-[1,2]oxazolo[5,4-c]pyridine-6-carbonyl)-3a-methoxy-3,4,6,6a-tetrahydro-1H-pyrrolo[3,4-c]pyrrol-2-yl]-3-[4-(trifluoromethoxy)phenyl]propan-1-one]: 6.92.
Turning to `CO[C@@]12CN(C(=O)OCc3ccc(OC(F)(F)F)cc3)C[C@H]1CN(C(=O)c1ccc3[nH]nnc3c1)C2` (single isomer, unassigned) [Example 4.03, (+)-trans-5-(1H-benzotriazole-5-carbonyl)-3a-methoxy-hexahydro-pyrrolo[3,4-c]pyrrole-2-carboxylic acid 4-trifluoromethoxy-benzyl ester], the pIC50 is 8.15.
Same read-out and setting: with `CO[C@]12CN(C(=O)CCc3ccc(OC(F)(F)F)cc3)C[C@@H]1CN(C(=O)c1ccc3[nH]nnc3c1)C2` (relative stereo) [Example 1.02, trans-1-[5-(1H-benzotriazole-5-carbonyl)-3a-methoxy-3,4,6,6a-tetrahydro-1H-pyrrolo[3,4-c]pyrrol-2-yl]-3-[4-(trifluoromethoxy)phenyl]propan-1-one] the figure was 8.00; with `CO[C@@]12CN(C(=O)OCc3ccc(OC(F)(F)F)cc3)C[C@H]1CN(C(=O)c1ccc3[nH]nnc3c1)C2` (single isomer, unassigned) [Example 3.03, (−)-trans-5-(1H-benzotriazole-5-carbonyl)-3a-methoxy-hexahydro-pyrrolo[3,4-c]pyrrole-2-carboxylic acid 4-trifluoromethoxy-benzyl ester], 7.72; with `CO[C@@]12CN(C(=O)c3cc(OCC4CCOCC4)nc(C4CC4)c3)C[C@H]1CN(C(=O)N1CCc3c(O)noc3C1)C2` (single isomer, unassigned) [Example 3.01, trans-[5-(3-hydroxy-5,7-dihydro-4H-[1,2]oxazolo[5,4-c]pyridine-6-carbonyl)-3a-methoxy-3,4,6,6a-tetrahydro-1H-pyrrolo[3,4-c]pyrrol-2-yl]-[2-cyclopropyl-6-(oxan-4-ylmethoxy)pyridin-4-yl]methanone], 7.70.
With `CO[C@]12CN(C(=O)c3cc(OCC4CCOCC4)nc(C4CC4)c3)C[C@@H]1CN(C(=O)N1CCc3c(O)noc3C1)C2` (relative stereo) [Example 2.03, trans-[5-(3-hydroxy-5,7-dihydro-4H-[1,2]oxazolo[5,4-c]pyridine-6-carbonyl)-3a-methoxy-3,4,6,6a-tetrahydro-1H-pyrrolo[3,4-c]pyrrol-2-yl]-[2-cyclopropyl-6-(oxan-4-ylmethoxy)pyridin-4-yl]methanone], the negative-log IC50 (pIC50) was 7.74.

Still in this experiment, the particulars now being: ATX IC50, 30 nM ATX, 1 μM MR121 substrate, 30° C., pH 8.0.
`CO[C@]12CN(C(=O)c3cc(OCC4CCOCC4)nc(C4CC4)c3)C[C@@H]1CN(C(=O)N1CCc3[nH]nnc3C1)C2` (single isomer, unassigned) [Example 4.00, trans-[3a-methoxy-5-(1,4,6,7-tetrahydrotriazolo[4,5-c]pyridine-5-carbonyl)-3,4,6,6a-tetrahydro-1H-pyrrolo[3,4-c]pyrrol-2-yl]-[2-cyclopropyl-6-(oxan-4-ylmethoxy)pyridin-4-yl]methanone] gave a pIC50 of 8.00.
For `CO[C@]12CN(C(=O)c3cc(OCC4CCOCC4)nc(C4CC4)c3)C[C@@H]1CN(C(=O)N1CCc3[nH]nnc3C1)C2` (single isomer, unassigned) [Example 3.00, trans-[3a-methoxy-5-(1,4,6,7-tetrahydrotriazolo[4,5-c]pyridine-5-carbonyl)-3,4,6,6a-tetrahydro-1H-pyrrolo[3,4-c]pyrrol-2-yl]-[2-cyclopropyl-6-(oxan-4-ylmethoxy)pyridin-4-yl]methanone], the negative logarithm of the IC50 (pIC50) is 8.22.
On the same count and under the same terms, with `CO[C@]12CN(C(=O)c3cc(OCC4CCOCC4)nc(C4CC4)c3)C[C@@H]1CN(C(=O)N1CCc3[nH]nnc3C1)C2` (racemic) [Example 2.00, trans-[3a-Methoxy-5-(1,4,6,7-tetrahydrotriazolo[4,5-c]pyridine-5-carbonyl)-3,4,6,6a-tetrahydro-1H-pyrrolo[3,4-c]pyrrol-2-yl]-[2-cyclopropyl-6-(oxan-4-ylmethoxy)pyridin-4-yl]methanone] the figure was 7.92.

The values are drawn from patent US10787459B2, “Bicyclic compounds as ATX inhibitors” (Hoffmann-La Roche Inc., priority 2015, dated 2020).
